Results: US7230033B2, “Pest control compositions and methods for their use” (United States of America as represented by the Secretary of …, priority 2000, dated 2007)
≈ marks a conversion by molar mass, not a printed value. Read-outs that look alike come from different tables or passages of the source. Marks after values point to notes of the source that are not given here.

Experiments:
X. cheopis adults = assay: Flea bioassay, treated 2-dram vials, probit analysis; format: in vivo, Xenopsylla cheopis; conditions: 24 h exposure; for Slope: probit
Description: Med. […] A control treated with acetone only was run with each series. Tick and flea susceptibility was evaluated using a modification of the disposable pipette method of Barnard et al. (J. Econ. Entomol., 74:466-69, 1981) and Maupin and […]. Med. […] The inner surface of 2-dram friction cap vials were treated with the compound/acetone solution, or acetone only as a control, and left to air-dry overnight (see also, […] et al., J. Med. […] Three to 4 holes were made in the plastic cap to allow for air exchange. Nymphal ticks and adult fleas were then placed directly into the vials using forceps. […] For each time point, if ticks and fleas were incapable of movement, maintaining normal posture, leg coordination, ability to right themselves, or any signs of life, they were considered moribund or dead.

[1] = system: Xenopsylla cheopis adults; assay: Residual activity, aged treated vials, fleas; format: in vivo
Description: (§1) Briefly, groups of 10 nymphal I. scapularis and X. cheopis fleas were used in all tests (more than a total of 5,240 nymphs and 4,860 fleas were exposed to the compounds). The inner surface of 2-dram friction cap vials were treated with the compound/acetone solution, or acetone only as a control, and left to air-dry overnight (see also, Panella et al., J. Med. Entomol., 42(3):352-358, 2005. Three to 4 holes were made in the plastic cap to allow for air exchange. Nymphal ticks and adult fleas were then placed directly into the vials using forceps. Vials containing ticks or fleas were placed in desiccators for 24 h at 21° C. and 90% RH. Morbidity and mortality was recorded at 1, 2, 4, 8, and 24 h after initial exposure.

Aedes aegypti adults = assay: Residual activity, aged treated bottles, mosquitoes; format: in vivo
Description: (§2) Adult mosquitoes were tested using the bottle bioassay method of Brogden and McAllister (J. Am. Mosq. Control Assoc., 14:159–64, 1998) with minor modifications. Natural product extracts were two-fold serially diluted for a total of 8 concentrations ranging from 0.002% to 0.25% in 1.5 ml of acetone. Individual dilutions were added to 250 ml Wheaton glass bottles and capped. Bottles were manipulated to evenly coat all inner surfaces. The caps were removed and bottles were allowed to air-dry overnight. Once bottles were completely dry, 10–50 (in some tests 25–50) adult mosquitoes were aspirated into the bottles. Mosquitoes were held in the bottles for 24 h at 23° C. and 85% RH. Morbidity and mortality were recorded at 15, 30, 45, and 60 min and 24 hour intervals. One bottle for each replicate was treated with acetone only and served as a control. The dose-mortality data was evaluated with probit analysis, using the LdP Line software, to determine LC50 and LC90 values.

[2] = system: ticks, fleas, and mosquitoes; assay: Residual activity, general statements (Examples 9, 17); format: in vivo
Ae. aegypti adults = assay: Adult mosquito bottle bioassay; format: in vivo, Aedes aegypti; conditions: for Slope: probit
Description: as §2
Carvacrol was combined with compound 7, 9, or 10 at a 1:1 ratio (7.5 μl of carvacrol:7.5 μl of compound 7, 9, or 10 was added to 2,985 μl of acetone for a 0.5% solution, from which serial dilutions were made), and tested as previously described against nymphal ticks and adult and larval mosquitoes.

Ixodes scapularis nymphs = assay: Residual activity, aged treated vials, ticks; format: in vivo; conditions: for LC90, residual activity: NE = not effective
Description: as §1

I. scapularis nymphs = assay: Tick bioassay, treated 2-dram vials, probit analysis; format: in vivo, Ixodes scapularis; conditions: for LC90 / Slope: 24 h exposure; for LC90: NE = not effective at concentrations tested; for Slope: probit
Description: A control treated with acetone only was run with each series.
For each time point, if ticks and fleas were incapable of movement, maintaining normal posture, leg coordination, ability to right themselves, or any signs of life, they were considered moribund or dead.

[3] = system: Ixodes scapularis nymphal ticks; assay: Tick repellency bioassay; format: in vivo
Description: One-hundred (100) μl of test compound was pipetted onto a cotton-tipped applicator mounted to the bottom center of a 1 dram glass shell vial using non-toxic modeling clay. A total of 8 concentrations were screened with doses ranging from 0.04–5.0%. Applicators treated with acetone only served as controls. A line was drawn around the perimeter of the vial immediate to the base of the treated cotton portion of the applicator. The area above the line was designated the “repellent zone”. The vial was allowed to air-dry 1 h before a single tick was introduced. Vials were covered with a single piece of mesh and fitted with a hollowed-out plastic cap to cover the opening of the vial; this prevented the tick from escaping but allowed for air exchange. Vials were breathed upon by investigators at 1 min intervals and a hand was placed over the test vials to provide stimuli for ticks to pass into the repellent zone. […] If the tick crossed over and remained in the “repellent zone” for ≧5 sec, the tick was deemed non-repelled by the test compound. Each test was replicated 10 times using a new tick for each test. Repellent activity was determined at 1, 2, 3, and 4 h after treatment. Probit analysis was used to determine repellent efficacy (RD50 and RD95).

[4] = system: fourth-instar Aedes aegypti larvae; assay: Larval mosquito bioassay; format: in vivo; conditions: Aedes aegypti larval mosquitoes, concentration of the 1 ml added to 150 ml water
Description: Individual groups of 10 fourth-instar Aedes aegypti larvae were contained in 150 ml of water and exposed to […] of essential oils prepared by 2-fold serial dilutions ranging from 0.06%–5.0% in 1 ml of acetone. A control group of larvae were exposed to 1 ml of acetone only.
It is important to note that larval mosquitoes are tested in their natural environment, i.e., in water. The particular assays used herein involved groups of 10 larval mosquitoes in 150 ml of water. The weight percentages reported for lethal concentration for larval mosquitoes are the weight percentages added to the 150 ml water (as opposed to the final percentage of the tested compound(s) in the 150 ml water). As one of skill in the art will appreciate, test compound(s) added to a volume of water (such as, 150 ml) can be dramatically diluted depending upon the water solubility of the tested compound. […] If the tested compound is an oil (such as, carvacrol, nootkatone, or 13-hydroxy-valencene), it most likely floats on the surface of the water.

[5] = 2 weeks after treatment, NE = not effective
[6] = 24 h exposure, NE = not effective at concentrations tested
[7] = 1 h after compound applied to applicator
[8] = 4 h after compound applied to applicator
[9] = Aedes aegypti adult mosquitoes, alone, or 1:1 with carvacrol (in parenthesis)
[10] = Ixodes scapularis nymphal ticks, alone, or 1:1 with carvacrol (in parenthesis)
[11] = Ixodes scapularis nymphal ticks, alone, or 1:1 with carvacrol (in parenthesis), listed as carvacrol

## C=C(C)[C@@H]1CCC2=CC(=O)C[C@@H](C)[C@]2(C)C1 [Compound 8, Nootkatone]
X. cheopis adults; NE = not effective at concentrations tested
  LC90: 0.008 percent concentration, wt:vol
X. cheopis adults
  Slope: 2.949
[1]; 1 week after treatment
  Slope, residual activity: 3.107
[1]; 1 week after treatment, NE = not effective
  LC90, residual activity: 0.053 percent concentration, wt:vol
[1]; 2 weeks after treatment
  LC90, residual activity: 0.081 percent concentration, wt:vol
  Slope, residual activity: 1.931
[1]; 4 weeks after treatment
  Slope, residual activity: 1.95
Aedes aegypti adults; 1 week after treatment
  Slope, residual activity: 3.858
Aedes aegypti adults; 2 weeks after treatment
  Slope, residual activity: 4.953
Aedes aegypti adults; [5]
  LC90, residual activity: 0.012 percent concentration, wt:vol
Aedes aegypti adults; 4 weeks after treatment
  Slope, residual activity: 7.772
[2]; ticks
  residual activity: considerable biological activity through the four week time period
Ae. aegypti adults; [6]
  LC90: 0.0087 percent concentration, wt:vol
Ae. aegypti adults; 24 h exposure
  Slope: 4.635
Ae. aegypti adults; Aedes aegypti, 24 h exposure, NE = not effective at concentrations tested, read-out: LC50
  LC50: 46 µg/mL (≈ 211 µM)
Ixodes scapularis nymphs; 1 week after treatment
  Slope, residual activity: 2.871
Ixodes scapularis nymphs; 2 weeks after treatment
  Slope, residual activity: 2.727
  LC90, residual activity: 0.056 percent concentration, wt:vol
Ixodes scapularis nymphs; 4 weeks after treatment
  Slope, residual activity: 2.871
I. scapularis nymphs
  LC90: 0.015 percent concentration, wt:vol
  Slope: 3.211

## CCN(CC)C(=O)c1cccc(C)c1 [Deet, N, N-diethyl-m-toluamide, reference compound]
[3]; 1 h
  Slope (±SEM): 0.633 (±0.222)
[3]; [7]
  RD50: 0.167 % (wt:vol)
  RD95: 50.579 % (wt:vol)
[3]; 4 h
  Slope (±SEM): 0.485 (±0.212)
[3]; [8]
  RD50: 0.384 % (wt:vol)
  RD95: 950.294 % (wt:vol)

## C=C(C)C1CCC23OC2C(=O)C[C@@H](C)[C@]3(C)C1 (stereo partly drawn) [Compound 17, nootkatone-1,10-epoxide]
X. cheopis adults
  Slope: 2.326
Ae. aegypti adults; 24 h exposure
  Slope: 1.346
[3]; 1 hr, combinations 1:1 by weight
  RD50: 3×10^−1 % (w/v)
[3]; 4 hr, combinations 1:1 by weight
  RD50: 0.135 % (w/v)
I. scapularis nymphs
  Slope: 2.883

## Cc1ccc(C(C)C)cc1O [Compound 4, Carvacrol]
X. cheopis adults
  Slope: 3.413
[4]
  LC50 (1 h): 3.853^b % (wt:vol)
  LC50 (24 h): 0.988 % (wt:vol)
  LC90 (1 hr): 10.478 % (wt:vol)
  LC90 (24 h): 1.411 % (wt:vol)
[4]; listed as carvacrol
  LC50 (1 h): 3.853 % (wt:vol)
  LC50 (24 h): 1.411 % (wt:vol)
[2]
  residual activity: little-to-no activity beyond 24 h
Ae. aegypti adults; [6]
  LC50: 0.0051 percent concentration, wt:vol
Ae. aegypti adults; 24 h exposure
  Slope: 2.908
Ae. aegypti adults; [9]
  LC50 (15 min): 0.0057^b % (wt:vol)
  LC50 (24 h): 0.0051 % (wt:vol)
  LC90 (15 min): 0.017 % (wt:vol)
  LC90 (24 h): 0.014 % (wt:vol)
Ae. aegypti adults; Aedes aegypti adult mosquitoes, alone, or 1:1 with carvacrol (in parenthesis), listed as carvacrol
  LC50 (15 min): 0.0057 % (wt:vol)
[3]; 1 h
  Slope (±SEM): 1.506 (±0.355)
[3]; [7]
  RD50: 0.088 % (wt:vol)
  RD95: 1.09 % (wt:vol)
[3]; 4 h
  Slope (±SEM): 2.907 (±0.755)
[3]; [8]
  RD50: 0.077 % (wt:vol)
  RD95: 0.283 % (wt:vol)
[3]; at 1 h
  more effective than Deet: 1.9 fold
[3]; at 4 h
  more effective than Deet: 46 fold
Ixodes scapularis nymphs; nymphal I. scapularis
  residual activity: lacks any residual activity beyond about 1 week
I. scapularis nymphs
  LC90: 0.014 percent concentration, wt:vol
  Slope: 3.906
I. scapularis nymphs; [10]
  LC50 (1 h): 0.019^b % (wt:vol)
  LC50 (24 h): 0.0068 % (wt:vol)
  LC90 (1 hr): 0.071 % (wt:vol)
  LC90 (24 h): 0.014 % (wt:vol)
I. scapularis nymphs; [11]
  LC50 (1 h): 0.019 % (wt:vol)
  LC50 (24 h): about 0.0068 % (wt:vol)

## C[C@@H]1CC(=O)C2OC23CCC(C2(C)CO2)C[C@@]13C (stereo partly drawn) [Compound 18, nootkatone-1,10–11,12-diepoxide]
X. cheopis adults
  Slope: 1.455
Ae. aegypti adults; 24 h exposure
  Slope: 4.472
I. scapularis nymphs
  Slope: 2.131

## C=C(C=O)C1CCC2=CCC[C@@H](C)[C@]2(C)C1 (stereo partly drawn) [Compound 15, valencene-13-aldehyde]
X. cheopis adults
  Slope: 5.366
[1]; 1 week after treatment
  Slope, residual activity: 3.211
Aedes aegypti adults; 1 week after treatment
  LC90, residual activity: 0.027 percent concentration, wt:vol
  Slope, residual activity: 3.392
Aedes aegypti adults; 2 weeks after treatment
  Slope, residual activity: 3.136
Aedes aegypti adults; [5]
  LC90, residual activity: 0.037 percent concentration, wt:vol
[2]; ticks
  residual activity: considerable biological activity through the four week time period
Ae. aegypti adults; 24 h exposure
  Slope: 8.714
Ixodes scapularis nymphs; 1 week after treatment
  Slope, residual activity: 2.859
  LC90, residual activity: 0.072 percent concentration, wt:vol
I. scapularis nymphs
  Slope: 2.755
